Test results reported in PMC7721897, “Metabolism and pharmacokinetics of a novel polyphenol fatty acid ester phloridzin docosahexaenoate in Balb/c female mice” (Scientific Reports, 2020).

Columns and labels:
[1] = test system: mammary carcinoma cells and mammary epithelial cells; assay: Cellular uptake assay, all cell lines together; type: cell-based, human and mouse; conditions: 72 h, 20 μM
Protocol: Figure 1 Conjugation of PZ with DHA increases the cellular uptake and stability of PZ and DHA. The cells were treated with 20 μM of PZ, DHA or PZ-DHA and cultured for 72 h at 37 °C. Cells were harvested and washed thoroughly using cold PBS. Cells were lysed in cold acetone containing 0.05 mg/mL quercetin, and cell lysates were collected by centrifugation and analyzed by using UPLC-ESI-MS/MS. (A) mean % cellular uptake of PZ, DHA and PZ-DHA. (B) fold increase in intracellular PZ and DHA when conjugated. ANOVA multiple means statistical comparison method was performed and differences among means were compared using Tukey’s test; *p < 0.05. (MDA-MB-231 p = 0.008; MDA-MB-468 p = 0.01; 4T1 p = 0.02; MCF-7 p = 0.01; MCF-10A p = 0.0005).
Cells were seeded at a density of 3 × 10^5 cells (MDA-MB-231, MDA-MB-468, MCF-7, and MCF-10A) or 1 × 10^5 cells (4T1) /T-75 flask. The cells were cultured overnight to promote cell adhesion. Adherent cells were treated with a sub-cytotoxic concentration (20 μM) of PZ, DHA or PZ-DHA and cultured for 72 h at 37 °C. The supernatant was carefully removed, and cell monolayers were washed with cold PBS. Cells were harvested using TrypLE Express and washed thoroughly with cold PBS. The cell pellet was resuspended in 3 mL of cold acetone containing 0.05 mg/mL quercetin as the internal standard, and incubated overnight at 4 °C. Cell lysates were collected by centrifugation at 14,000×g for 15 min at 4 °C and samples were concentrated by evaporating acetone under a stream of nitrogen gas. Dry pellets were reconstituted in methanol and filtered. The sample was analyzed using a UPLC/ESI/MS system. The percentage cell uptake of the total dose was quantified using standard curves of PZ (R^2 = 0.99), DHA (R^2 = 0.98) or PZ-DHA (R^2 = 0.99) made in methanol.
(§1) PZ-DHA and/or PZ-DHA metabolites in malignant/non-malignant epithelial cell lysates, in vitro microsome enzyme reaction mixtures, and mouse serum aliquots were determined using UPLC-ESI–MS/MS instrument (Waters Limited, Mississauga, ON, Canada). All mass spectroscopic analyses were performed using mass scan (full-scan, identification of unknowns) and single ion monitoring (SIM; quantification of PZ, DHA, PZ-DHA, and quercetin) modes of a Waters H-class UPLC separations module coupled with a Micromass Quattro micro API MS/MS system and MassLynx V4.0 control software. An Allure biphenyl column (100 mm × 2.1 mm, 1.8 μm, Restek Pure Chromatography, Bellefonte, PA, USA) and a flow rate of 0.3 mL/min were employed. ESI- mode with a capillary voltage of 3000 V and a nebulizer gas (N2) temperature of 375 °C were used. A volume of 2 µL sample was injected.

[2] = In vitro phase I metabolism with mouse hepatic microsomes and NADPH; type: in vitro ADME; conditions: liver microsomal enzymes of C57BL/6 male mice
Protocol: Figure 2 PZ-DHA undergoes phase I metabolism in the presence of freshly prepared mouse liver microsomes. PZ-DHA (1.1 µM) was incubated with 100 mM NADPH in the presence of mouse liver microsome for 1 h at 37 °C. Metabolites from PZ-DHA (A) hydrolysis, (B) and (C) hydroxylation, and (D) epoxidation were identified.
Mouse hepatic microsomes were freshly isolated from the livers of male C57BL/6 mice, and the entire extraction procedure was carried out at 4 °C. Mouse livers were minced and homogenized in KCl/sucrose phosphate buffer (0.154 M KCl, 0.25 M sucrose in 50 mM potassium phosphate buffer (K2HPO4/KH2PO4) (PPB), pH 7.5). Cell/tissue debris was separated out by centrifuging homogenized livers at 12,000×g for 22 min at 4 °C. The supernatant was collected and centrifuged at 100,000×g for 70 min at 4 °C. The pellet was gently rinsed using 50 mM PPB and resuspended in glycerol/phosphate buffer (20% glycerol (v/v), 80% 0.1 M PPB pH 7.5). The protein concentration was determined using a Bradford assay (R^2 = 1.00), and microsomes were stored at − 80 °C.
Potential in vitro phase I and phase II metabolites of PZ-DHA were detected by incubating PZ-DHA in the presence of freshly-prepared mouse hepatic microsome preparations. Phase I metabolites were determined by incubating 1.1 µM PZ-DHA with 100 mM NADPH in the presence of mouse hepatic microsomes for 1 h at 37 °C. Phase II methylation, glucuronidation, and sulphation of PZ-DHA was determined by incubating 1.1 µM PZ-DHA with 1 mM SAM, 2 mM UDPGA, and 0.5 mM PAPS, respectively, in the presence of freshly prepared mouse hepatic microsome for 1 h at 37 °C (Supplementary information Tables S1–S4). To assess the efficiency of the metabolic process, controls (no PZ-DHA control, no mouse hepatic microsome control and no co-factor control) were incubated in parallel to the test. Reactions were terminated by adding a mixture of 4 mL ice-cold acetonitrile:acetone (80:20) containing 0.05 mg/mL quercetin as the internal standard. Proteins were precipitated by incubating the reaction mixture at 4 °C overnight and separated by centrifuging at 14,000 × g for 15 min at 4 °C. Supernatants were concentrated under nitrogen flush, filtered and PZ-DHA and/or PZ-DHA metabolites were identified using a UPLC-ESI–MS/MS system (Waters Limited, Mississauga, ON, Canada).
as §1

In the case of `CC/C=C\C/C=C\C/C=C\C/C=C\C/C=C\C/C=C\CCC(=O)OC[C@H]1O[C@@H](Oc2cc(O)cc(O)c2C(=O)CCc2ccc(O)cc2)[C@H](O)[C@@H](O)[C@@H]1O` [PZ-DHA, phloridzin docosahexaenoate], the “abundance in cells throughout the experimental period” value [1] is reported as “stable abundance”, the “cellular uptake (as a % of the dose), in words” value ([1]; all cell lines) is reported as “significantly higher than that of PZ or DHA” and the “NADPH-dependent phase I bio-transformations identified” value [2] is reported as “hydrolysis, hydroxylation, and epoxidation”.
